Test results taken from publication PMC13091788 (NPJ Aging, 2026).
Where two headings read alike, the source gives them in different places.

What was measured:
C2C12 cells = experiment: Quantification of mitochondrial DNA (mtDNA/nDNA ratio); type: cell-based, mouse; conditions: C2C12, 10 μM
Protocol: Murine myoblast C2C12 cells were used for various cellular experiments in this study. Two different sources of C2C12 cells were used depending on the experiment: C2C12 cells obtained from RIKEN BRC (RCB0987) were used for gene expression, mtDNA quantification, and mitochondrial morphology analysis; C2C12 cells from ATCC (CRL-1772) were used for OCR analysis. Cells were cultured in Dulbecco’s Modified Eagle Medium (DMEM; Sigma-Aldrich or Nacalai Tesque), supplemented with 10% FBS and 1% penicillin–streptomycin. Cells were maintained in a humidified incubator at 37°C with 5% CO2.
To generate mMITOL-knockout C2C12 cells, CRISPR-Cas9 vectors were constructed. Single-guide RNAs (sgRNAs) targeting the mouse MITOL gene were designed using the online tool CRISPOR (http://crispor.org). The oligonucleotide pair corresponding to the mMITOL guide RNA (gRNA sequence, 5′-[…]-3′) was annealed and ligated into the PX459 vector (48139, Addgene). C2C12 cells were transfected using Lipofectamine 3000 (Thermo Fisher Scientific), and knockout clones were selected by serial dilution.
To assess mitochondrial DNA (mtDNA) content, the mtDNA/nuclear DNA (nDNA) ratio was determined by extracting DNA from C2C12 cells using the NucleoSpin Tissue Kit (Takara Bio), followed by real-time quantitative PCR analysis with specific primer sets for mtDNA (16S rRNA or ND1) and nDNA (Hexokinase 2; HK2) (Supplementary Table 2). Real-time quantitative PCR was performed using TB Green Premix Ex Taq II (Takara Bio) and a Thermal Cycler Dice Real-Time System (Takara Bio). The analysis of mtDNA/nDNA ratios was conducted using the ΔΔCt method as previously described.

PAMPA assay = type: in vitro ADME; conditions: 37 °C, 4 h
Protocol: To determine the passive membrane diffusion rates, Corning Gentest Pre-coated PAMPA Plate System was used. The acceptor plate was prepared by adding 200 μL of 0.1 M phosphate buffer (pH 4.5–8.6) supplemented with 5% DMSO to each well, and then 300 μL of 30 μM compounds in 0.1 M phosphate buffer (pH 4.5–8.6) with 5% DMSO were added to the donor wells. The acceptor plate was then placed on top of the donor plate and incubated at 37 °C for 4 h without agitation. After the incubation, the plates were separated and the solutions from each well of both the acceptor plate and the donor plate were transferred to 96-well plates and mixed with acetonitrile. The final concentrations of compounds in both donor and acceptor wells, as well as the concentrations of the initial donor solutions, were analyzed using liquid chromatography-tandem mass spectrometry (LC-MS/MS). The permeability of the compounds was calculated as described in a previous study. […] Two technical replicates were performed.

[1] = Hepatic microsomal stability assay, human; type: in vitro ADME; conditions: CLint, 1 μM, 0.2 mg/mL microsomes, NADPH, 30 min
Protocol: Disappearance of the parent compound over time was measured by using the amount of drug at time zero as a reference. After 5 min of preincubation, 1 mM NADPH (final concentration; the same applies to the following) was added to a mixture containing 1 μM of the compound, 0.2 mg/mL of human or mouse liver microsomes (Sekisui XenoTech), 1 mM EDTA and 0.1 M phosphate buffer (pH 7.4). The mixture solution was incubated at 37 °C for 30 min with rotation at 60 rpm. An aliquot of 50 μL of the incubation mixture was added to 250 μL of chilled acetonitrile/internal standard (IS, methyltestosterone). After centrifugation at 3150 × g for 15 min at 4 °C, the supernatants were analyzed by LC-MS/MS. Hepatic microsomal stability (mL/min/kg, CLint) was calculated according to a previous report, using 48.8 (human) or 45.4 (mouse) mg MS protein/g liver and 25.7 (human) or 87.5 (mouse) g liver/kg body weight as scaling factors. Two technical replicates were performed.

[2] = Unbound fraction in human plasma (equilibrium dialysis); type: in vitro ADME; conditions: pH 7.4, equilibrium dialysis 6 h, 37 °C, read-out: Plasma protein binding (fraction unbound) human (pH7.4)
Protocol: (§1) An equilibrium dialysis apparatus was used to determine the unbound fraction for each compound in human or mouse plasma. High Throughput Dialysis Model HTD96b and Dialysis Membrane Strips MWCO 12–14 kDa (HTDialysis) were used. Plasma was spiked with the test compound (1 μM), and 150 μL aliquots were loaded into the apparatus and dialyzed versus 150 μL of 0.1 M phosphate buffer (pH 7.4) at 37 °C for 6 h by rotation at 80 rpm. The unbound fraction was calculated as the ratio of receiver side (buffer) to donor side (plasma) concentrations. Two technical replicates were performed.

[3] = Unbound fraction in mouse plasma (equilibrium dialysis); type: in vitro ADME; conditions: pH 7.4, equilibrium dialysis 6 h, 37 °C, read-out: Plasma protein binding (fraction unbound) mouse (pH7.4)
Protocol: as §1

[4] = Repeated oral administration: plasma concentration and tissue distribution; type: in vivo, mouse; conditions: mice, 7 days
Protocol: In the repeated administration study, animals were treated according to the group allocations as described in the main text and corresponding to Supplementary Figure 2d. Compounds were administered orally either via drinking water or mixed feed for 7 or 28 days, and plasma, brain, heart, and skeletal muscle samples were collected at the final time point (8:00–10:00 a.m.) on the day of sacrifice (n = 4 per group). Blood was drawn from the abdominal vena cava under terminal anesthesia and plasma was separated by centrifugation using heparinized tubes. Tissue samples were homogenized with four volumes of phosphate-buffered saline. Plasma and tissue homogenate samples were precipitated with acetonitrile containing an internal standard (IS) at a volume fourfold or greater than that of the sample, and then centrifuged at 15,000 × g for 10 min at 4 °C. The resulting supernatants were analyzed by LC-MS/MS.
An LCMS-8060 instrument equipped with a Shimadzu Nexera series LC system (Shimadzu) was used. Berberrubine and IS were analyzed in multiple reaction monitoring mode under electronspray ionization conditions. The analytical column used was a CAPCELL PAK C18 MGIII (3 μm × 2.0 mm ID × 35 mm; OSAKA SODA) at 50 °C. The gradient mobile phase consisted of 0.1% formic acid in water (mobile phase A) and 0.1% formic acid in acetonitrile (mobile phase B) at a total flow rate of 1 mL/min. The initial mobile phase composition was 10% B, which was held constant for 0.5 min, increased in a linear fashion to 90% B over 1 min, then held constant for 0.8 min, and finally brought back to the initial condition of 10% B over 0.01 min and reequilibrated for 1 min. The transitions (precursor ion > product ion) of berberrubine and IS (methyl testosterone) are 322.11 > 307.1 and 303.1 > 109.1 (positive), respectively.

[5] = donor/acceptor pH 6.4/7.4, 30 μM, read-out: Membrane permeability pH6.4/7.4
[6] = donor/acceptor pH 7.4/7.4, 30 μM, read-out: Membrane permeability pH7.4/7.4
[7] = 2 mg/mL AcA-BRB in drinking water

Papp at 4 h, 30 μM (PAMPA assay; donor/acceptor pH 8.6/8.6, 30 μM, read-out: Membrane permeability pH8.6/8.6) | SMILES | mitochondrial abundance (mtDNA 16S rRNA or ND1 / nuclear HK2) (C2C12 cells) | Papp at 4 h, 30 μM (PAMPA assay; donor/acceptor pH 4.5/4.5, 30 μM, read-out: Membrane permeability pH4.5/4.5) | Papp at 4 h, 30 μM (PAMPA assay; [5]) | Papp at 4 h, 30 μM (PAMPA assay; [6]) | Liver microsomal metabolic stability human (pH7.4) [1] | fraction unbound at 6 h, 1 μM [2] | fraction unbound at 6 h, 1 μM [3] | plasma berberrubine concentration compared to all other groups ([4]; 2 mg/mL in drinking water) | berberrubine concentration in the heart compared to other tissues [4, 7] | berberrubine level in the brain [4, 7]
 | COc1ccc2cc3[n+](cc2c1O)CCc1cc2c(cc1-3)OCO2 [AcA-BRB, berberrubine acetic acid adduct] | significantly increased | 0.22 ×10⁻⁶ cm/s | 1.87 ×10⁻⁶ cm/s | 1.8 ×10⁻⁶ cm/s | < 22.0 mL/min/kg | 0.374 | 0.203 | significantly higher |  | 
2.6 ×10⁻⁶ cm/s | COc1ccc2cc3n(cc-2c1=O)CCc1cc2c(cc1-3)OCO2 [Q-BRB, quinoid-type berberrubine] | significantly increased |  | 1.63 ×10⁻⁶ cm/s | 2.9 ×10⁻⁶ cm/s | < 22.0 mL/min/kg | 0.359 | 0.162 |  |  | 
 | COc1ccc2cc3[n+](cc2c1O)CCc1cc2c(cc1-3)OCO2 [berberrubine] |  |  |  |  |  |  |  |  | tendency toward higher concentrations | exceptionally low
